Earlier results in patent US20160175482A1, “COMPOSITION AND DELIVERY SYSTEM” (LOCATE THERAPEUTICS LIMITED, priority 2013, published 2016).

Cc1ccc(C)c(N=Nc2cc(C)c(N=Nc3c(O)ccc4ccccc34)cc2C)c1 [Oil Red-O]
log P: 6.85
